{
  "source": "patent US20250152734A1",
  "about": "“USES AND FORMULATIONS OF CAMPTOTHECIN (CPT)-CONTAINING NANOPARTICLES” (DANTARI, INC., priority 2022, published 2025)",
  "experiment": "Tolerability of CPT in 3-week mouse xenograft studies (ER2019-09-1B, ER2019-09-1C)",
  "type": "in vivo",
  "method": "This value is determined from the calculated free and total CPT concentrations in the sample. The “% free of total CPT” value provides the clearest indicator of drug substance stability during storage and use. […] The release specification for % free of total CPT in the drug substance is ≤3%. The stability specification for % free of total CPT in the drug substance is ≤5%. These limits are well below prior studies using CPT administered directly as a free drug. In two separate 3-week mouse xenograft studies (ER2019-09-1B, ER2019-09-1C) CPT itself was dosed and well-tolerated at 3 mg/kg which has a human equivalent dose of 9 mg CPT/m2.",
  "data": [
    {"smiles": "CC[C@@]1(O)C(=O)OCc2c1cc1n(c2=O)Cc2cc3ccccc3nc2-1", "note": "[CPT, 20 (S)-camptothecin]", "values": [
      {"measurement": "well-tolerated dose", "setting": "3-week mouse xenograft studies", "value": 3, "unit": "mg/kg"},
      {"measurement": "human equivalent dose of tolerated dose", "setting": "mouse, in vivo", "value": 9, "unit": "mg CPT/m2"}
    ]}
  ]
}
